Assay results as given in paper PMC5841303, “In silico screening for human norovirus antivirals reveals a novel non-nucleoside inhibitor of the viral polymerase” (Scientific Reports, 2018).

Biological target: human norovirus Sydney 2012 RdRp (Norovirus GII.4 (Norwalk virus, human norovirus), UniProt K4L8Z7)
Assay: Combinational study of 54 and PPNDS (Compusyn combination index)
Type: biochemical
Conditions: 54 with PPNDS, 4:1 ratio
Experimental: Despite the minimal activity in the cell culture system, RdRp inhibition by 54 is an important finding in the search of novel norovirus inhibitors. […] PPNDS (0.025–25 µM) and 54 (0.1–100 µM) were examined alone and together in a 1:4 ratio respectively (Fig. 13A), and the average of the combination indices at 50% (1.6), 75% (1.7) and 90% (1.8) inhibition was 1.7.
Fluorescent RdRp activity assays were carried out as previously described[14],[62]. Briefly, RdRp activity was quantified by monitoring the formation of double-stranded RNA (dsRNA) from a single stranded homopolymeric template, poly(C) (Sigma Aldrich, St Louis, MO, USA), using the fluorescent dye PicoGreen (Life Technologies, Carlsbad, CA, USA). RdRp assays were performed in 384-well plates, and each reaction mixture contained 400 ng enzyme, 45 µM GTP, 10 ng/µL poly(C) RNA, 2.5 mM MnCl2, 5 mM dithiothreitol, (DTT), 0.01% bovine serum albumin (BSA), and 0.005% Tween 20 in 20 mM Tris-HCl, pH 7.5, with a final reaction volume of 25 µL. The previous published norovirus NNI NIC02 was used as a positive control. RdRps were incubated for 10 mins at 30 °C in the presence of the test compounds or the compound vehicle DMSO (0.5% vol/vol) before addition into the reaction mixture, which was then allowed to run 15 min at 30 °C then terminated with 10 mM EDTA, followed by PicoGreen staining and dsRNA quantitation. GraphPad Prism V6.05 (La Jolla, CA, USA) was used to plot the IC50 values. In cases where fluorescent enhancement was recorded for a compound instead of inhibition, a secondary gel-based polymerase activity assay was used as a counter-screen as described below, to exclude the possibility of RdRp activity enhancement (Supplementary Fig. S1). Primed elongation activity was examined in a gel-based assay as previously described[16],[63] using the RNA template (PE44-NoV, Fig. 4D). Gels were imaged using BioRad (Hercules, CA, U.SA) Geldoc Universal Hood II, running BioRad Image Lab software, V4.1, build 16. Antagonism was calculated using Compusyn software V1.0[59]. 54 and PPNDS (4:1 ratio) were tested alone and together against norovirus Sydney 2012 RdRp.

O=C1NN(c2ccccc2)C(=O)/C1=C/c1ccc(-c2ccc(S(=O)(=O)Nc3ccccc3)cc2)o1 [Compound 54] was tested, and the “combination index at 50% inhibition” value was 1.6, the “combination index at 75% inhibition” value was 1.7 and the “combination index at 90% inhibition” value was 1.8. It also gave an average combination index (average over 50%, 75% and 90% inhibition) of 1.7.
